Measurements: BigSolDB 2.1

Cc1ccc(-c2ncc(Cl)cc2-c2ccc(S(C)(=O)=O)cc2)cn1
solubility (mole fraction) (in 1,4-butanediol, 293.2 K): 0.0605 | solubility (mole fraction) (in 1,4-butanediol, 298.2 K): 0.0723 | solubility (mole fraction) (in 1,4-butanediol, 303.2 K): 0.0873 | solubility (mole fraction) (in 1,4-butanediol, 308.2 K): 0.104 | solubility (mole fraction) (in 1,4-butanediol, 313.2 K): 0.124 | solubility (mole fraction) (in 1,4-dioxane, 293.2 K): 0.0445 | solubility (mole fraction) (in 1,4-dioxane, 298.2 K): 0.073 | solubility (mole fraction) (in 1,4-dioxane, 303.2 K): 0.111 | solubility (mole fraction) (in 1,4-dioxane, 308.2 K): 0.173 | solubility (mole fraction) (in 1,4-dioxane, 313.2 K): 0.265 | solubility (mole fraction) (in DMAc, 293.2 K): 0.0481 | solubility (mole fraction) (in DMAc, 298.2 K): 0.0811 | solubility (mole fraction) (in DMAc, 303.2 K): 0.141 | solubility (mole fraction) (in DMAc, 308.2 K): 0.236 | solubility (mole fraction) (in DMAc, 313.2 K): 0.387 | solubility (mole fraction) (in DMF, 293.2 K): 0.0369 | solubility (mole fraction) (in DMF, 298.2 K): 0.069 | solubility (mole fraction) (in DMF, 303.2 K): 0.122 | solubility (mole fraction) (in DMF, 308.2 K): 0.215 | solubility (mole fraction) (in DMF, 313.2 K): 0.374 | solubility (mole fraction) (in DMSO, 293.2 K): 0.0292 | solubility (mole fraction) (in DMSO, 298.2 K): 0.0605 | solubility (mole fraction) (in DMSO, 303.2 K): 0.126 | solubility (mole fraction) (in DMSO, 308.2 K): 0.253 | solubility (mole fraction) (in DMSO, 313.2 K): 0.495 | solubility (mole fraction) (in NMP, 293.2 K): 0.0658 | solubility (mole fraction) (in NMP, 298.2 K): 0.108 | solubility (mole fraction) (in NMP, 303.2 K): 0.169 | solubility (mole fraction) (in NMP, 308.2 K): 0.265 | solubility (mole fraction) (in NMP, 313.2 K): 0.411 | solubility (mole fraction) (in PEG-200, 293.2 K): 0.116 | solubility (mole fraction) (in PEG-200, 298.2 K): 0.135 | solubility (mole fraction) (in PEG-200, 303.2 K): 0.156 | solubility (mole fraction) (in PEG-200, 308.2 K): 0.176 | solubility (mole fraction) (in PEG-200, 313.2 K): 0.201 | solubility (mole fraction) (in PEG-400, 293.2 K): 0.211 | solubility (mole fraction) (in PEG-400, 298.2 K): 0.238 | solubility (mole fraction) (in PEG-400, 303.2 K): 0.275 | solubility (mole fraction) (in PEG-400, 308.2 K): 0.311 | solubility (mole fraction) (in PEG-400, 313.2 K): 0.351 | solubility (mole fraction) (in PEG-600, 293.2 K): 0.329 | solubility (mole fraction) (in PEG-600, 298.2 K): 0.354 | solubility (mole fraction) (in PEG-600, 303.2 K): 0.389 | solubility (mole fraction) (in PEG-600, 308.2 K): 0.422 | solubility (mole fraction) (in PEG-600, 313.2 K): 0.456 | solubility (mole fraction) (in ethanol, 293.2 K): 0.0337 | solubility (mole fraction) (in ethanol, 298.2 K): 0.0537 | solubility (mole fraction) (in ethanol, 303.2 K): 0.0807 | solubility (mole fraction) (in ethanol, 308.2 K): 0.121 | solubility (mole fraction) (in ethanol, 313.2 K): 0.182 | solubility (mole fraction) (in ethylene glycol, 293.2 K): 0.113 | solubility (mole fraction) (in ethylene glycol, 298.2 K): 0.119 | solubility (mole fraction) (in ethylene glycol, 303.2 K): 0.129 | solubility (mole fraction) (in ethylene glycol, 308.2 K): 0.139 | solubility (mole fraction) (in ethylene glycol, 313.2 K): 0.153 | solubility (mole fraction) (in formamide, 293.2 K): 0.0586 | solubility (mole fraction) (in formamide, 298.2 K): 0.113 | solubility (mole fraction) (in formamide, 303.2 K): 0.225 | solubility (mole fraction) (in formamide, 308.2 K): 0.425 | solubility (mole fraction) (in formamide, 313.2 K): 0.779 | solubility (mole fraction) (in glycerin, 293.2 K): 0.0558 | solubility (mole fraction) (in glycerin, 298.2 K): 0.0566 | solubility (mole fraction) (in glycerin, 303.2 K): 0.0577 | solubility (mole fraction) (in glycerin, 308.2 K): 0.0593 | solubility (mole fraction) (in glycerin, 313.2 K): 0.0625 | solubility (mole fraction) (in isopropanol, 293.2 K): 0.0282 | solubility (mole fraction) (in isopropanol, 298.2 K): 0.0452 | solubility (mole fraction) (in isopropanol, 303.2 K): 0.0668 | solubility (mole fraction) (in isopropanol, 308.2 K): 0.1 | solubility (mole fraction) (in isopropanol, 313.2 K): 0.149 | solubility (mole fraction) (in methanol, 293.2 K): 0.0241 | solubility (mole fraction) (in methanol, 298.2 K): 0.0379 | solubility (mole fraction) (in methanol, 303.2 K): 0.0561 | solubility (mole fraction) (in methanol, 308.2 K): 0.0843 | solubility (mole fraction) (in methanol, 313.2 K): 0.125 | solubility (mole fraction) (in n-propanol, 293.2 K): 0.0505 | solubility (mole fraction) (in n-propanol, 298.2 K): 0.0788 | solubility (mole fraction) (in n-propanol, 303.2 K): 0.111 | solubility (mole fraction) (in n-propanol, 308.2 K): 0.164 | solubility (mole fraction) (in n-propanol, 313.2 K): 0.238 | solubility (mole fraction) (in propylene glycol, 293.2 K): 0.0472 | solubility (mole fraction) (in propylene glycol, 298.2 K): 0.0605 | solubility (mole fraction) (in propylene glycol, 303.2 K): 0.0754 | solubility (mole fraction) (in propylene glycol, 308.2 K): 0.0942 | solubility (mole fraction) (in propylene glycol, 313.2 K): 0.117 | solubility (mole fraction) (in water, 293.2 K): 1.36e-05 | solubility (mole fraction) (in water, 298.2 K): 1.58e-05 | solubility (mole fraction) (in water, 303.2 K): 1.86e-05 | solubility (mole fraction) (in water, 308.2 K): 2.12e-05 | solubility (mole fraction) (in water, 313.2 K): 2.44e-05
